Source: article PMC9127186, “Molecular Basis Underlying Hepatobiliary and Renal Excretion of Phenolic Acids of Salvia miltiorrhiza Roots (Danshen)” (Frontiers in Pharmacology, 2022)

Legend:
[1] = target: T1, rat Oct2 (Rattus norvegicus, UniProt Q9R0W2); conditions: 10 min, 100 μM
T1 sequence (Q9R0W2 1-555): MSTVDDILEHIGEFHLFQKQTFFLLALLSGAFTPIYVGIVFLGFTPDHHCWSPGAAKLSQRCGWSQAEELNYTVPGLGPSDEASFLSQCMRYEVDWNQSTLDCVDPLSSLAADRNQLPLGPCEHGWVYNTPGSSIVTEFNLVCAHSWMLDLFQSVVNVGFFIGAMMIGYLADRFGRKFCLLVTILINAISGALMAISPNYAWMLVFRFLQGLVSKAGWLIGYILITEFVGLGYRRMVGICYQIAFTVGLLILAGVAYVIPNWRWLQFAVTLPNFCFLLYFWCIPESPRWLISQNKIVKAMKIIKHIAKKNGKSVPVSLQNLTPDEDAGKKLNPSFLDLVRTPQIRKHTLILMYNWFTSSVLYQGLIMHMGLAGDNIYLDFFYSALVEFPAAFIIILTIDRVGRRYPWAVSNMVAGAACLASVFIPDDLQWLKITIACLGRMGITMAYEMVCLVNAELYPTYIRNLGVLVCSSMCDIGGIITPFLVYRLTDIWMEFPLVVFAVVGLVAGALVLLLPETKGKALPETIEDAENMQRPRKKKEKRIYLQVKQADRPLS

[2] = target: T2, rat Pept2 (Rattus norvegicus, UniProt Q63424); conditions: 10 min, 100 μM, pH 6
T2 sequence (Q63424 1-729): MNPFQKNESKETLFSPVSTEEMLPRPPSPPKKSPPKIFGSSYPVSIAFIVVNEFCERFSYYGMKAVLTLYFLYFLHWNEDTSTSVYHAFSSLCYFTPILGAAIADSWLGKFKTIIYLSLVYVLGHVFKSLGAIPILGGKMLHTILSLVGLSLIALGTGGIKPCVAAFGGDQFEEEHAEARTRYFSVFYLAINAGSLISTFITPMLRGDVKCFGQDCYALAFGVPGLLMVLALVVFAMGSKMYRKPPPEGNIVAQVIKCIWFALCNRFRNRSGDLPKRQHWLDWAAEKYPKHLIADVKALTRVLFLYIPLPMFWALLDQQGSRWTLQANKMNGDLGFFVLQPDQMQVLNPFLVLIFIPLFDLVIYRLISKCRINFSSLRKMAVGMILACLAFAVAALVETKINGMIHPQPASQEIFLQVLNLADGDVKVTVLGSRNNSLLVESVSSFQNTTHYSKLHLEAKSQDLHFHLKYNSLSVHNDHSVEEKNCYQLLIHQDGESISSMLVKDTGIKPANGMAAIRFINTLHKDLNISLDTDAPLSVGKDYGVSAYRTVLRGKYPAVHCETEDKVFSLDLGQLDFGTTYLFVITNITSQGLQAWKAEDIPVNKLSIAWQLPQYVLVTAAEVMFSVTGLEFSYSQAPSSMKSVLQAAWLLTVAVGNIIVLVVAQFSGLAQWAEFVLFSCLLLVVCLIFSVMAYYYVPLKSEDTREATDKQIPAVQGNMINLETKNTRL

[3] = target: T3, rat Oatp1a1 (Rattus norvegicus, UniProt P46720); conditions: 10 min, 100 μM
T3 sequence (P46720 1-670): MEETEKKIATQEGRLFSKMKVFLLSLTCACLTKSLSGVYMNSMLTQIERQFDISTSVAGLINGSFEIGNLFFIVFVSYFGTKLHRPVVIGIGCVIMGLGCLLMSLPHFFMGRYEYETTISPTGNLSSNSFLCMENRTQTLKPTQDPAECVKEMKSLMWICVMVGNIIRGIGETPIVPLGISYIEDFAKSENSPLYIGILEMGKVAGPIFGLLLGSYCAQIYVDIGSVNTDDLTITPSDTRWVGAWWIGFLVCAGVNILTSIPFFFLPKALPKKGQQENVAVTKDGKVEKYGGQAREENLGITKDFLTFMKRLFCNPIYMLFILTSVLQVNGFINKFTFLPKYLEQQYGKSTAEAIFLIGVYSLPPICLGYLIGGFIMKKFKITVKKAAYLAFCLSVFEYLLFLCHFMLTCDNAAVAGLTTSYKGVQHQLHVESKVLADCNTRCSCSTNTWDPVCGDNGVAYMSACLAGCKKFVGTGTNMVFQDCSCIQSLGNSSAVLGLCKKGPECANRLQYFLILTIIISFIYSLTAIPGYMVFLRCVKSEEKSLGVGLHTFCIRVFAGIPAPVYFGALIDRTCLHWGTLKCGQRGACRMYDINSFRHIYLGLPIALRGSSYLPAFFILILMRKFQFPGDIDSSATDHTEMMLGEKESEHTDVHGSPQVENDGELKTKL

[4] = target: T4, rat Ntcp (Rattus norvegicus, UniProt P26435); conditions: 10 min, 100 μM
T4 sequence (P26435 1-362): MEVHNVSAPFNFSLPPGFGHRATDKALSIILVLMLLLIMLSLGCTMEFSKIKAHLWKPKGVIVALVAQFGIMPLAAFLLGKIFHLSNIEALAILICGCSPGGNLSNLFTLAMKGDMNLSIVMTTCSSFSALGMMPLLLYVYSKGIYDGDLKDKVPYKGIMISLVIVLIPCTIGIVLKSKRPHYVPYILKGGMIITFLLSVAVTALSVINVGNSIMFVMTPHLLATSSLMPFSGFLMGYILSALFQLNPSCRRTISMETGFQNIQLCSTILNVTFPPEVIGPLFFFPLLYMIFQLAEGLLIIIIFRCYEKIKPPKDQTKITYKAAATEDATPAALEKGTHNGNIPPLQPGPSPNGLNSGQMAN

| Compound | TransportTC/TransportMC ratio (net transport ratio) [1] | TransportTC/TransportMC ratio (net transport ratio) [2] | TransportTC/TransportMC ratio (net transport ratio) [3] | TransportTC/TransportMC ratio (net transport ratio) [4] |
| --- | --- | --- | --- | --- |
| O=C(/C=C/c1ccc(O)c(O)c1/C=C/c1ccc(O)c(O)c1)O[C@H](Cc1ccc(O)c(O)c1)C(=O)O [Salvianolic acid A, salvianolic acid A] | 0.94 ± 0.33 | 0.84 ± 0.19 | 2.24 ± 0.67 | 0.84 ± 0.13 |
| O=C(/C=C/c1ccc(O)c(O)c1)O[C@H](Cc1ccc(O)c(O)c1)C(=O)O [Rosmarinic acid, rosmarinic acid] | 0.75 ± 0.32 | 0.84 ± 0.17 | 1.45 ± 0.57 | 1.68 ± 0.25 |
